The values that follow come from US11339161B2, “Triazolo pyridines as modulators of gamma-secretase” (Boehringer Ingelheim International GmbH, priority 2017, dated 2022).

The target in one test is RPS6KB1 (p70S6K) (Homo sapiens, UniProt P23443). The test is described as follows: Z'-LYTE SelectScreen biochemical kinase assay RPS6KB1 (p70S6K). From the text: (§1) Thermo Fisher Scientific SelectScreen™ Biochemical Kinase Profiling Service Z′-LYTE™ Screening Protocol and Assay Conditions Assay Theory
(§2) The […] biochemical assay employs a fluorescence-based, coupled-enzyme format and is based on the differential sensitivity of phosphorylated and non-phosphorylated peptides to proteolytic cleavage. The peptide substrate is labeled with two fluorophores—one at each end—that make up a FRET pair. In the primary reaction, the kinase transfers the gamma-phosphate of ATP to a single tyrosine, serine or threonine residue in a synthetic FRET-peptide. In the secondary reaction, a site-specific protease recognizes and cleaves non-phosphorylated FRET-peptides. Phosphorylation of FRET-peptides suppresses cleavage by the Development Reagent. Cleavage disrupts FRET between the donor (i.e., coumarin) and acceptor (i.e., fluorescein) fluorophores on the FRET-peptide, whereas uncleaved, phosphorylated FRET-peptides maintain FRET. A ratiometric method, which calculates the ratio (Emission Ratio=Coumarin emission (445 nm)/Fluorescein emission (520 nm)) of donor emission to acceptor emission after excitation of the donor fluorophore at 400 nm, is used to quantitate reaction progress, as shown in the equation below. A significant benefit of this ratiometric method for quantitating reaction progress is the elimination of well-to-well variations in FRET-peptide concentration and signal intensities. As a result, the assay yields very high Z′-factor values (>0.7) at a low percent phosphorylation. Both cleaved and uncleaved FRET-peptides contribute to the fluorescence signals and therefore to the Emission Ratio. The extent of phosphorylation of the FRET-peptide can be calculated from the Emission Ratio. The Emission Ratio will remain low if the FRET-peptide is phosphorylated (i.e., no kinase inhibition) and will be high if the FRET-peptide is non-phosphorylated (i.e., kinase inhibition).
(§3) The Test Compounds are screened in 1% DMSO (final) in the well. For 10 point titrations, 3-fold serial dilutions are conducted from the starting concentration of the customer's choosing.
(§4) All Peptide/Kinase Mixtures are diluted to a 2× working concentration in the appropriate Kinase Buffer (see section Kinase Specific Assay Conditions for a complete description).
(§5) All ATP Solutions are diluted to a 4× working concentration in Kinase Buffer (50 mM HEPES pH 7.5, 0.01% BRIJ-35, 10 mM MgCl2, 1 mM EGTA). ATP Km apparent is previously determined using a Z″-LYTE assay.
(§6) The Development Reagent is diluted in Development Buffer (see section Kinase-Specific Assay Conditions—Direct and Cascade for a complete description).
(§7) Bar-coded Corning, low volume NBS, black 384-well plate (Corning Cat. #4514) • 1. 100 nL—100× Test Compound in 100% DMSO • 2. 2.4 μL—Kinase buffer • 3. 5 μL—2× Peptide/Kinase Mixture • 4. 2.5 μL—4×ATP Solution • 5. 30—second plate shake • 6. 60—minute Kinase Reaction incubation at room temperature • 7. 5 μL—Development Reagent Solution • 8. 30—second plate shake • 9. 60—minute Development Reaction incubation at room temperature • 10. Read on fluorescence plate reader and analyze the data Z′-LYTE Assay Controls
(§8) SelectScreen Kinase Profiling Service uses XLfit from IDBS. The dose response curve is curve fit to model number 205 (sigmoidal dose-response model).
The 2×RPS6 KB1 (p70S6K)/Ser/Thr 07 mixture is prepared in 50 mM HEPES pH 7.5, 0.01% BRIJ-35, 10 mM MgCl2, 1 mM EGTA. The final 10 μL Kinase Reaction consists of 2.87-17.7 ng RPS6 KB1 (p70S6K) and 2 μM Ser/Thr 07 in 50 mM HEPES pH 7.5, 0.01% BRIJ-35, 10 mM MgCl2, 1 mM EGTA. After the 1 hour Kinase Reaction incubation, 5 μL of a 1:45000 dilution of Development Reagent A is added.

The next test deals with PDGFRA (PDGFR alpha) (Homo sapiens, UniProt P16234). Put plainly: Z'-LYTE SelectScreen biochemical kinase assay PDGFRA (PDGFR alpha).
Description: as §1, §2, §3, §4, §5, §6, §7, §8
The 2×PDGFRA (PDGFR alpha)/Tyr 04 mixture is prepared in 50 mM HEPES pH 7.5, 0.01% BRIJ-35, 10 mM MgCl2, 4 mM MnCl2, 1 mM EGTA, 2 mM DTT. The final 10 μL Kinase Reaction consists of 1.54-22.6 ng PDGFRA (PDGFR alpha) and 2 μM Tyr 04 in 50 mM HEPES pH 7.5, 0.01% BRIJ-35, 10 mM MgCl2, 2 mM MnCl2, 1 mM EGTA, 1 mM DTT. After the 1 hour Kinase Reaction incubation, 5 μL of a 1:64 dilution of Development Reagent B is added.

The next test deals with RET (Homo sapiens, UniProt P07949). Put plainly: Z'-LYTE SelectScreen biochemical kinase assay RET.
Description: as §1, §2, §3, §4, §5, §6, §7, §8
The 2×RET/Tyr 02 mixture is prepared in 50 mM HEPES pH 7.5, 0.01% BRIJ-35, 10 mM MgCl2, 1 mM EGTA. The final 10 μL Kinase Reaction consists of 0.49-3.64 ng RET and 2 μM Tyr 02 in 50 mM HEPES pH 7.5, 0.01% BRIJ-35, 10 mM MgCl2, 1 mM EGTA. After the 1 hour Kinase Reaction incubation, 5 μL of a 1:128 dilution of Development Reagent A is added.

The next test has as its target PTK2 (FAK) (Homo sapiens, UniProt Q05397). The test is described as follows: Z'-LYTE SelectScreen biochemical kinase assay PTK2 (FAK).
Description: as §1, §2, §3, §4, §5, §6, §7, §8
The 2×PTK2 (FAK)/Tyr 07 mixture is prepared in 50 mM HEPES pH 7.5, 0.01% BRIJ-35, 10 mM MgCl2, 1 mM EGTA. The final 10 μL Kinase Reaction consists of 12.5-100 ng PTK2 (FAK) and 2 μM Tyr 07 in 50 mM HEPES pH 7.5, 0.01% BRIJ-35, 10 mM MgCl2, 1 mM EGTA. After the 1 hour Kinase Reaction incubation, 5 μL of a 1:16 dilution of Development Reagent B is added.

The mark [1] stands for this setting: 10 μmolar compound concentration, ATP at Km app, read-out: RPS6KB1 (p70S6K) inhibition.
[2] abbreviates: read-out: % Inhibition mean RPS6KB1 (p70S6K).
[3] abbreviates: 10 μmolar compound concentration, ATP at Km app, read-out: PDGFRA (PDGFR alpha) inhibition.
Where [4] appears, read: read-out: % Inhibition mean PDGFRA (PDGFR alpha).
The mark [5] stands for this setting: 10 μmolar compound concentration, ATP at Km app, read-out: RET inhibition.
[6] abbreviates: read-out: % Inhibition mean RET.
Where [7] appears, read: 10 μmolar compound concentration, ATP at Km app, read-out: PTK2 (FAK) inhibition.
[8] abbreviates: read-out: % Inhibition mean PTK2 (FAK).

Molecules are shown by their SMILES. Like-named read-outs stand apart in the source and are kept apart here.

Sequence of PDGFRA (PDGFR alpha) (P16234 24-1089): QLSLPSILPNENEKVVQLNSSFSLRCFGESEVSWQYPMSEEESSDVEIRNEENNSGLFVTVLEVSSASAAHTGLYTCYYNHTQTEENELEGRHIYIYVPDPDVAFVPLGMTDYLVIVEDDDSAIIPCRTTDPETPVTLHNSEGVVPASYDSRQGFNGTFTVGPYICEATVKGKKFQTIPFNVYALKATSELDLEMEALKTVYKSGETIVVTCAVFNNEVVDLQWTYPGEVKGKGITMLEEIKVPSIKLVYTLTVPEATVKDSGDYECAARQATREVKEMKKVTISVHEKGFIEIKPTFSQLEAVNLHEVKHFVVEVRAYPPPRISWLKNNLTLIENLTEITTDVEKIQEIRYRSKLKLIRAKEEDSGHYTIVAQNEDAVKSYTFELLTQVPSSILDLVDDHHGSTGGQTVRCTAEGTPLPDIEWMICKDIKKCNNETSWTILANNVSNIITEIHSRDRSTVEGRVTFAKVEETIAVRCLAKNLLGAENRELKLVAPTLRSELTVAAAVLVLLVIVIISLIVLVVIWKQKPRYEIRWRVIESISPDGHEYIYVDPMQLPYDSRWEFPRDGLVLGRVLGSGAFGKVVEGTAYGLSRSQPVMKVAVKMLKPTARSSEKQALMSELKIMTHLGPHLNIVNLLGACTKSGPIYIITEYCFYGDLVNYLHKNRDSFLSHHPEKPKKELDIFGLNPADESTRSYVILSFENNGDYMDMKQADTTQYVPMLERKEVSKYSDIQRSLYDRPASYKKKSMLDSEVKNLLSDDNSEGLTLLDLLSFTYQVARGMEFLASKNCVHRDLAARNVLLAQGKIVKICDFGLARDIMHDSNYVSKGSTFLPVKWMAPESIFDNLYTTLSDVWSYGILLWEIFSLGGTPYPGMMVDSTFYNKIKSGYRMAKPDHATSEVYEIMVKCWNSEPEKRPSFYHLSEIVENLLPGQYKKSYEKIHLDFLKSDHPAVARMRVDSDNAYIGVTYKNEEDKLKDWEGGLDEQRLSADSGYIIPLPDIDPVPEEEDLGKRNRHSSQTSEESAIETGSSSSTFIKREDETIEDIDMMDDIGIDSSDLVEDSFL
Sequence of PTK2 (FAK) (Q05397 whole entry): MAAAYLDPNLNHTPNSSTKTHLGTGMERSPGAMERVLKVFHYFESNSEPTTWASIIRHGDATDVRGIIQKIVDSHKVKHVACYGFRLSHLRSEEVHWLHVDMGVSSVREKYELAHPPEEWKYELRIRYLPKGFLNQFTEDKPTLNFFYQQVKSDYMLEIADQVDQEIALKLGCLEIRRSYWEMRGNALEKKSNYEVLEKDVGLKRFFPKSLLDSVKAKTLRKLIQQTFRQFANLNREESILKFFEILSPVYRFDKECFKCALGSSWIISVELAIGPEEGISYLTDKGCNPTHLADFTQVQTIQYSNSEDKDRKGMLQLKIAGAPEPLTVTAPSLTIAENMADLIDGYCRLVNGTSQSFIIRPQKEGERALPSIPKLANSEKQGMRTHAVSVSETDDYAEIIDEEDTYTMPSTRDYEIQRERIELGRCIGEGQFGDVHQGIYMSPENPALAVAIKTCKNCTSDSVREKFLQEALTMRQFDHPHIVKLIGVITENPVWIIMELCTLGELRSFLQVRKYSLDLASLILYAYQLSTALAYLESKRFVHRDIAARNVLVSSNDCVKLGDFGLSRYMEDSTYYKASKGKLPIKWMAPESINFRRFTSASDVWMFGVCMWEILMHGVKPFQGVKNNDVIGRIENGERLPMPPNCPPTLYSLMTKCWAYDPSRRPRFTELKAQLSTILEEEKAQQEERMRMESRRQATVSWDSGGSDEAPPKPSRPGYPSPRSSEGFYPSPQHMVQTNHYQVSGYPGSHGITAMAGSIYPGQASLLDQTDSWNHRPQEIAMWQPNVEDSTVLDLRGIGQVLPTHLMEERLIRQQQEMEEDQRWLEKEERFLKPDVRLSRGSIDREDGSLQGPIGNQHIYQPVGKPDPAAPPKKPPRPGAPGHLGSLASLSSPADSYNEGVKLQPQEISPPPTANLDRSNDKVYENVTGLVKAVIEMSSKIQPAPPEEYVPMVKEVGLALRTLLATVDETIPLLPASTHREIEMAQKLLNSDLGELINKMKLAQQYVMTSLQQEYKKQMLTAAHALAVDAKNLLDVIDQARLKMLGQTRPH
Sequence of RET (P07949 29-1114): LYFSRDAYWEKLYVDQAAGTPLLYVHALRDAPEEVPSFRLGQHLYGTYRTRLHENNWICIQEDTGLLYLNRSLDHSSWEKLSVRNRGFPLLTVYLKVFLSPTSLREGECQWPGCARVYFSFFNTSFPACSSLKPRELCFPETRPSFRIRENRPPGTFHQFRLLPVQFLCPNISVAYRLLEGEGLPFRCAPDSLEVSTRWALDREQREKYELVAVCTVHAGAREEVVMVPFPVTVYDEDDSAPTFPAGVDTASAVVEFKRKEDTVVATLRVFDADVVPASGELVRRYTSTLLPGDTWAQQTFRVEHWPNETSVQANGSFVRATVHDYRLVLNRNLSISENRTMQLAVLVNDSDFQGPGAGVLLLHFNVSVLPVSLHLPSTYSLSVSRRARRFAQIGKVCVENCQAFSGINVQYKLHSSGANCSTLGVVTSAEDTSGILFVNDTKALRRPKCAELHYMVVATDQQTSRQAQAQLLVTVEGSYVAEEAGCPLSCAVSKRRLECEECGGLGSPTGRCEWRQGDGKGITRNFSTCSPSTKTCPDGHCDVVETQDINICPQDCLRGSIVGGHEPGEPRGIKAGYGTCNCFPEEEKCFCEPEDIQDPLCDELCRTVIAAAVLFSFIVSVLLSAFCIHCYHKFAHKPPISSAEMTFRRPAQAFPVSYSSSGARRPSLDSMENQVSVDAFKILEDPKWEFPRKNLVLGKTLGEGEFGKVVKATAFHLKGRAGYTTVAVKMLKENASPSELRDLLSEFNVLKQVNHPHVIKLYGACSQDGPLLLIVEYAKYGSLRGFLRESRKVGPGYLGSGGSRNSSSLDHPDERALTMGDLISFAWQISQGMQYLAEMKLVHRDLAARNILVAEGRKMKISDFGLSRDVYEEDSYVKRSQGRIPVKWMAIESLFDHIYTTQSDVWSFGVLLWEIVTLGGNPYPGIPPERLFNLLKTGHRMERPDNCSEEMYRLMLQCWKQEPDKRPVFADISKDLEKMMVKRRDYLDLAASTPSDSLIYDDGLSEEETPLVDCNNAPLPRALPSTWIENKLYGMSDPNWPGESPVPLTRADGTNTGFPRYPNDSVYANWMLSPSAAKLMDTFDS
Sequence of RPS6KB1 (p70S6K) (P23443 whole entry): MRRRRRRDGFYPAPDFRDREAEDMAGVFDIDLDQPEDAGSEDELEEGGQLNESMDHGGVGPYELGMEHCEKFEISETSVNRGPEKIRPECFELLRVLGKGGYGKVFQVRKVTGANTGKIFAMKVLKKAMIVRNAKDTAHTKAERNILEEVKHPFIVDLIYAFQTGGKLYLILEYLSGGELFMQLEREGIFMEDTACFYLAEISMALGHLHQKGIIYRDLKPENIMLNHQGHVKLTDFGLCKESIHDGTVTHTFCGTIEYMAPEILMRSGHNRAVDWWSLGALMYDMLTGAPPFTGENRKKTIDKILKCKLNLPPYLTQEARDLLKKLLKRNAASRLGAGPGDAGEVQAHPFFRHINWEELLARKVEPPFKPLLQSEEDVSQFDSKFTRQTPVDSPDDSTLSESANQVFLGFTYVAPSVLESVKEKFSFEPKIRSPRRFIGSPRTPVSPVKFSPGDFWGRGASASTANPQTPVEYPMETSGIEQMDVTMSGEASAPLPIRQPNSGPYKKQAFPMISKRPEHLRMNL

Usually inhibition stands for the change of the read-out against control, counted positive when it falls. For the compound `Cc1cc(F)ccc1-c1cccn2nc(NC3CCc4cnn(C)c4C3)nc12` (stereo not shown) [Example 40, [8-(4-Fluoro-2-methyl-phenyl)-[1,2,4]triazolo[1,5-a]pyridine-2-yl]-(1-methyl-4,5,6,7-tetrahydro-1H-indazol-6-yl)-amine], the inhibition at 10 µM was under 40% at RPS6KB1 (p70S6K) (setting [1]); 19% on RPS6KB1 (p70S6K) (setting [2]); under 40% at PDGFRA (PDGFR alpha) (setting [3]); 5% on PDGFRA (PDGFR alpha) (setting [4]); under 40% on RET (setting [5]); 18% on RET (setting [6]). For the same compound, the inhibition at 10 µM on PTK2 (FAK) (setting [7]) is under 40%; at PTK2 (FAK) (setting [8]), 18%.
Consider `CCn1ncc2c1CCC(Nc1nc3c(-c4ccccc4)cccn3n1)C2` (stereo not shown) [Example 57, (1-Ethyl-4,5,6,7-tetrahydro-1H-indazol-5-yl)-(8-phenyl-[1,2,4]triazolo[1,5-a]pyridine-2-yl)-amine], for which the inhibition at 10 µM was under 40% at RPS6KB1 (p70S6K) (setting [1]); under 40% at PDGFRA (PDGFR alpha) (setting [3]); 29% on PDGFRA (PDGFR alpha) (setting [4]); under 40% at RET (setting [5]); under 40% at PTK2 (FAK) (setting [7]); 16% on PTK2 (FAK) (setting [8]).
For `CCn1ncc2c1CCC(Nc1nc3c(-c4ccccc4C)cccn3n1)C2` (stereo not shown) [Example 56, (1-Ethyl-4,5,6,7-tetrahydro-1H-indazol-5-yl)-[8-(2-methyl-phenyl)-[1,2,4]triazolo[1,5-a]pyridine-2-yl]-amine], the inhibition at 10 µM on RPS6KB1 (p70S6K) (setting [1]) is under 40%; on RPS6KB1 (p70S6K) (setting [2]), 1%; on PDGFRA (PDGFR alpha) (setting [3]), under 40%; at PDGFRA (PDGFR alpha) (setting [4]) it was 21%; at RET (setting [5]) it was under 40%; at RET (setting [6]), 27%. For the same compound, the inhibition at 10 µM is under 40% on PTK2 (FAK) (setting [7]) and 15% at PTK2 (FAK) (setting [8]).
`Fc1cccc(-c2cccn3nc(Nc4ccc5[nH]cnc5c4)nc23)c1` [Cpd. 293 in WO09155551, reference compound]: the inhibition at 10 µM at RPS6KB1 (p70S6K) (setting [1]) was over 80%; at RPS6KB1 (p70S6K) (read-out: % Inhibition mean), 85%; on PDGFRA (PDGFR alpha) (setting [3]), over 80%; on PDGFRA (PDGFR alpha) (read-out: % Inhibition mean), 88%; at RET (setting [5]) it was over 80%; at RET (read-out: % Inhibition mean) it was 94%. Also, the inhibition at 10 µM on PTK2 (FAK) (setting [7]) was over 80%; on PTK2 (FAK) (read-out: % Inhibition mean) it was 94%.
On to `Cc1cc(F)ccc1-c1cccn2nc(NC3CCc4c(cnn4C)C3)nc12` (stereo not shown) [Example 10, [8-(4-fluoro-2-methyl-phenyl)-[1,2,4]triazolo[1,5-a]pyridine-2-yl]-(1-methyl-4,5,6,7-tetrahydro-1H-indazol-5-yl)-amine], for which the inhibition at 10 µM on RPS6KB1 (p70S6K) (setting [1]) was under 40%; at RPS6KB1 (p70S6K) (setting [2]), 2%; on PDGFRA (PDGFR alpha) (setting [3]) it was under 40%; at PDGFRA (PDGFR alpha) (setting [4]), 8%; at RET (setting [5]) it was under 40%; on RET (setting [6]), 18%. For the same compound, the inhibition at 10 µM at PTK2 (FAK) (setting [7]) is under 40%; at PTK2 (FAK) (setting [8]), 13%.
Regarding `CCCCCn1ncc2c1CCC(Nc1nc3c(-c4ccc(F)cc4C)cccn3n1)C2` (stereo not shown) [Example 47, [8-(4-fluoro-2-methyl-phenyl)-[1,2,4]triazolo[1,5-a]pyridine-2-yl]-(1-pentyl-4,5,6,7-tetrahydro-1H-indazol-5-yl)-amine], the inhibition at 10 µM on RPS6KB1 (p70S6K) (setting [1]) is under 40%; at RPS6KB1 (p70S6K) (setting [2]), 12%; at PDGFRA (PDGFR alpha) (setting [3]), under 40%; on PDGFRA (PDGFR alpha) (setting [4]), 10%; at RET (setting [5]), under 40%; on RET (setting [6]), 23%. The inhibition at 10 µM is under 40% at PTK2 (FAK) (setting [7]) and 19% at PTK2 (FAK) (setting [8]).
On to `CCn1ncc2c1CCC(Nc1nc3c(-c4ccc(C)nc4)cccn3n1)C2` (stereo not shown) [Example 67, (1-Ethyl-4,5,6,7-tetrahydro-1H-indazol-5-yl)-[8-(6-methyl-pyridin-3-yl)-[1,2,4]triazolo[1,5-a]pyridine-2-yl]-amine], for which the inhibition at 10 µM is under 40% at RPS6KB1 (p70S6K) (setting [1]); 23% at RPS6KB1 (p70S6K) (setting [2]); under 40% on PDGFRA (PDGFR alpha) (setting [3]); 20% on PDGFRA (PDGFR alpha) (setting [4]); under 40% on RET (setting [5]); 24% at RET (setting [6]). Besides, the figures for the inhibition at 10 µM on PTK2 (FAK) (setting [7]) and on PTK2 (FAK) (setting [8]) were under 40% and 27%, respectively.
Consider `CCn1ncc2c1CCC(Nc1nc3c(-c4cncc(OC)c4)cccn3n1)C2` (stereo not shown) [Example 70, (1-Ethyl-4,5,6,7-tetrahydro-1H-indazol-5-yl)-[8-(5-methoxy-pyridin-3-yl)-[1,2,4]triazolo[1,5-a]pyridine-2-yl]-amine], for which the inhibition at 10 µM at RPS6KB1 (p70S6K) (setting [1]) was under 40%; at RPS6KB1 (p70S6K) (setting [2]) it was -3%; on PDGFRA (PDGFR alpha) (setting [3]), under 40%; on PDGFRA (PDGFR alpha) (setting [4]), 17%; on RET (setting [5]), under 40%; at RET (setting [6]), 32%. For the same compound, the inhibition at 10 µM at PTK2 (FAK) (setting [7]) was under 40%; on PTK2 (FAK) (setting [8]) it was 14%.
On to `CCc1nn(C)c2c1CCC(Nc1nc3c(-c4ccc(F)cc4C)cccn3n1)C2` (stereo not shown) [Example 54, (3-Ethyl-1-methyl-4,5,6,7-tetrahydro-1H-indazol-6-yl)-[8-(4-fluoro-2-methyl-phenyl)-[1,2,4]triazolo[1,5-a]pyridine-2-yl]-amine], for which the inhibition at 10 µM was under 40% on RPS6KB1 (p70S6K) (setting [1]); 1% on RPS6KB1 (p70S6K) (setting [2]); under 40% on PDGFRA (PDGFR alpha) (setting [3]); 30% on PDGFRA (PDGFR alpha) (setting [4]); under 40% on RET (setting [5]); 15% on RET (setting [6]). The results for the inhibition at 10 µM on PTK2 (FAK) (setting [7]) and on PTK2 (FAK) (setting [8]) were under 40% and 14%, respectively.
